Consider 27 compounds from patent publication US20130072470A1 (ABBVIE INC., priority 2011, published 2013).

The term IC50 denotes the point on the concentration scale where inhibition reaches its midpoint. The low end stands for greater potency, the high end for weaker potency.

The target of the assay is T1, Jak3 enzyme (aa 811-1103) (Homo sapiens, UniProt P52333).
T1 construct: Jak3 enzyme (aa 811-1103); expressed in SF9 cells as a GST fusion; GST; made in house; host or cells: SF9 insect cells
Nature of the assay: In vitro Jak3 kinase activity measured by time-resolved fluorescence resonance energy transfer (trFRET). To be noted: ATP 0.001 mM. It counts as biochemical. As for the experimental part: In Vitro Jak3 Kinase Activity Measured by Time-Resolved Fluorescence Resonance Energy Transfer (trFRET)
Varying concentrations of inhibitor were added to an assay well containing: Jak3 enzyme (aa 811-1103; expressed in SF9 cells as a GST fusion and purified by glutathione affinity chromatography; 3 nM), peptide substrate (biotin-TYR2, Sequence: Biotin-(Ahx)-AEEEYFFLFA-amide; 2 μM), MOPSO pH 6.5 (50 mM), MgCl2 (10 mM), MnCl2 (2 mM), DTT (2.5 mM), BSA (0.01% w/v), Na3VO4 (0.1 mM) and ATP (0.001 mM). After about 60 min incubation at rt, the reaction was quenched by addition of EDTA (final concentration: 100 mM) and developed by addition of revelation reagents (final approximate concentrations: 30 mM HEPES pH 7.0, 0.06% BSA, 0.006% Tween-20, 0.24 M KF, 80 ng/mL PT66K (europium labeled anti-phosphotyrosine antibody cat #61T66KLB Cisbio, Bedford, Mass.) and 0.8 μg/mL SAXL (Phycolink streptavidin-allophycocyanin acceptor, cat #PJ52S, Prozyme, San Leandro, Calif.). The developed reaction was incubated in the dark either at about 4° C., for about 14 h or for about 60 min at rt, then read via a time-resolved fluorescence detector (Rubystar, BMG) using a 337 nm laser for excitation and emission wavelength of 665 nm. Within the linear range of the assay, the observed signal at 665 nm is directly related to phosphorylated product and used to calculate the IC50 values.

T1 sequence (P52333 811-1103): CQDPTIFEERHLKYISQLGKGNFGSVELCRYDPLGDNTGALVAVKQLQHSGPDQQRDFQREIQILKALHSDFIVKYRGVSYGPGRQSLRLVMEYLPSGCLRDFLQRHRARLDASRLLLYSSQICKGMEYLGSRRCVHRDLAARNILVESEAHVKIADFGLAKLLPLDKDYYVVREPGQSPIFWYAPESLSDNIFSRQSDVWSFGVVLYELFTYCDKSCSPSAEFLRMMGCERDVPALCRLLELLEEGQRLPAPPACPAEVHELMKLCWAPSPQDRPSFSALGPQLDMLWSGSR

As for `CC[C@@H]1C[C@H](NC(=O)c2cnoc2C2CC2)C[C@@H]1c1nnc2cnc3[nH]ccc3n12` [compound 66, 5-cyclopropyl-N-((1S,3R,4S)-3-ethyl-4-(6H-pyrrolo[2,3-e][1,2,4]triazolo[4,3-a]pyrazin-1-yl)cyclopentyl)isoxazole-4-carboxamide], for the setting “Table B”, the IC50 was in the range of 1 to 10 µM.
`C[C@@H]1CN(C(=O)NCC(F)(F)F)C[C@@H]1c1cnc2cnc3[nH]ccc3n12` [Example #18, (3S,4R)-3-methyl-4-(3H-imidazo[1,2-a]pyrrolo[2,3-e]pyrazin-8-yl)-N-(2,2,2-trifluoroethyl)pyrrolidine-1-carboxamide] showed an IC50 of over 10 µM.
Same read-out and setting: for `CC[C@@H]1C[C@@H](CCC#N)C[C@@H]1c1nnc2cnc3[nH]ccc3n12` [Example #23, 3-((1R,3R,4S)-3-ethyl-4-(6H-pyrrolo[2,3-e][1,2,4]triazolo[4,3-a]pyrazin-1-yl)cyclopentyl)propanenitrile] the value was 1 to 10 µM.
For the setting “Table B”, `CC[C@@H]1C[C@H](NC(=O)c2oc3ccccc3c2C)C[C@@H]1c1nnc2cnc3[nH]ccc3n12` [compound 43, N-((1S,3R,4S)-3-ethyl-4-(6H-pyrrolo[2,3-e][1,2,4]triazolo[4,3-a]pyrazin-1-yl)cyclopentyl)-3-methylbenzofuran-2-carboxamide] had an IC50 of 1 to 10 µM.
In turn, `C[C@@H]1CN(C(=O)NCC(F)F)C[C@@H]1c1cnc2cnc3[nH]ccc3n12` [Example 09, (3R,4S)—N-(2,2-difluoroethyl)-3-(3H-imidazo[1,2-a]pyrrolo[2,3-e]pyrazin-8-yl)-4-methylpyrrolidine-1-carboxamide] returned an IC50 of 1 to 10 µM.
Consider `CC[C@@H]1C[C@H](NC(=O)c2cnco2)C[C@@H]1c1nnc2cnc3[nH]ccc3n12` [compound 82, N-((1S,3R,4S)-3-ethyl-4-(6H-pyrrolo[2,3-e][1,2,4]triazolo[4,3-a]pyrazin-1-yl)cyclopentyl)oxazole-5-carboxamide], for which the IC50 (Table B) was 1 to 10 µM.
`CC[C@@H]1CN(C(=O)CCCC#N)C[C@@H]1c1cnc2cnc3[nH]ccc3n12` [Example #12] came in with an IC50 of 1 to 10 µM.
The compound `CC[C@@H]1C[C@H](NC(=O)C(CC2CC2)NC(C)=O)C[C@@H]1c1nnc2cnc3[nH]ccc3n12` (stereo partly drawn) [compound 31, 2-acetamido-3-cyclopropyl-N-((1S,3R,4S)-3-ethyl-4-(6H-pyrrolo[2,3-e][1,2,4]triazolo[4,3-a]pyrazin-1-yl)cyclopentyl)propanamide] yielded an IC50 (Table B) of over 10 µM.
In turn, `C[C@@H]1C[C@H](NCc2cnc(C(F)(F)F)nc2)C[C@@H]1c1cnc2cnc3[nH]ccc3n12` [Example #4, (1S,3S,4R)-3-(3H-imidazo[1,2-a]pyrrolo[2,3-e]pyrazin-8-yl)-4-methyl-N-((2-(trifluoromethyl)pyrimidin-5-yl)methyl)cyclopentylamine] returned an IC50 of over 10 µM.
Consider `CC[C@@H]1C[C@H](NC(=O)c2noc3ccccc23)C[C@@H]1c1nnc2cnc3[nH]ccc3n12` [compound 68, N-((1S,3R,4S)-3-ethyl-4-(6H-pyrrolo[2,3-e][1,2,4]triazolo[4,3-a]pyrazin-1-yl)cyclopentyl)benzo[d]isoxazole-3-carboxamide], for which, for the setting “Table B”, the IC50 was under 1 µM.
Take `CC[C@@H]1C[C@H](CCC#N)C[C@@H]1c1nnc2cnc3[nH]ccc3n12` [Example #22, 3-((1S,3R,4S)-3-ethyl-4-(6H-pyrrolo[2,3-e][1,2,4]triazolo[4,3-a]pyrazin-1-yl)cyclopentyl)propanenitrile]: the IC50 fell in the range of 1 to 10 µM.
The compound `CC[C@@H]1C[C@H](NC(=O)C2(C#N)CC2)C[C@@H]1c1nnc2cnc3[nH]ccc3n12` [compound 54, 1-cyano-N-((1S,3R,4S)-3-ethyl-4-(6H-pyrrolo[2,3-e][1,2,4]triazolo[4,3-a]pyrazin-1-yl)cyclopentyl)cyclopropanecarboxamide] yielded an IC50 (Table B) of 1 to 10 µM.
`CC[C@@H]1C[C@H](NC(=O)CNC(=O)c2ccco2)C[C@@H]1c1nnc2cnc3[nH]ccc3n12` [compound 48]: the half-inhibitory concentration (IC50) (Table B) is 1 to 10 µM.
The same measure, in the same setting: for `CC[C@@H]1C[C@H](NC(=O)c2cc(-c3ccco3)on2)C[C@@H]1c1nnc2cnc3[nH]ccc3n12` [compound 73, N-((1S,3R,4S)-3-ethyl-4-(6H-pyrrolo[2,3-e][1,2,4]triazolo[4,3-a]pyrazin-1-yl)cyclopentyl)-5-(furan-2-yl)isoxazole-3-carboxamide] the value was under 1 µM; for `CC[C@@H]1C[C@H](NC(=O)c2ccc(C)o2)C[C@@H]1c1nnc2cnc3[nH]ccc3n12` [compound 46, N-((1S,3R,4S)-3-ethyl-4-(6H-pyrrolo[2,3-e][1,2,4]triazolo[4,3-a]pyrazin-1-yl)cyclopentyl)-5-methylfuran-2-carboxamide], over 10 µM; for `CC[C@@H]1C[C@H](NC(=O)c2occc2C)C[C@@H]1c1nnc2cnc3[nH]ccc3n12` [compound 79, N-((1S,3R,4S)-3-ethyl-4-(6H-pyrrolo[2,3-e][1,2,4]triazolo[4,3-a]pyrazin-1-yl)cyclopentyl)-3-methylfuran-2-carboxamide], 1 to 10 µM.
Same read-out and setting: the value for `CC[C@@H]1C[C@H](NC(=O)c2noc3c2CCCC3)C[C@@H]1c1nnc2cnc3[nH]ccc3n12` [compound 72, N-((1S,3R,4S)-3-ethyl-4-(6H-pyrrolo[2,3-e][1,2,4]triazolo[4,3-a]pyrazin-1-yl)cyclopentyl)-4,5,6,7-tetrahydrobenzo[d]isoxazole-3-carboxamide] was 1 to 10 µM; that for `CCc1ocnc1C(=O)N[C@H]1C[C@@H](CC)[C@@H](c2nnc3cnc4[nH]ccc4n23)C1` [compound 74, 5-ethyl-N-((1S,3R,4S)-3-ethyl-4-(6H-pyrrolo[2,3-e][1,2,4]triazolo[4,3-a]pyrazin-1-yl)cyclopentyl)oxazole-4-carboxamide] was 1 to 10 µM; that for `CC[C@@H]1C[C@H](NC(=O)CCc2ccc(C)o2)C[C@@H]1c1nnc2cnc3[nH]ccc3n12` [compound 69, N-((1S,3R,4S)-3-ethyl-4-(6H-pyrrolo[2,3-e][1,2,4]triazolo[4,3-a]pyrazin-1-yl)cyclopentyl)-3-(5-methylfuran-2-yl)propanamide] was 1 to 10 µM.
On the same count and under the same terms, the value for `CC[C@@H]1C[C@H](NC(=O)CCC2CC2)C[C@@H]1c1nnc2cnc3[nH]ccc3n12` [compound 45, 3-cyclopropyl-N-((1S,3R,4S)-3-ethyl-4-(6H-pyrrolo[2,3-e][1,2,4]triazolo[4,3-a]pyrazin-1-yl)cyclopentyl)propanamide] was 1 to 10 µM; that for `CC[C@@H]1C[C@H](NC(=O)c2conc2C)C[C@@H]1c1nnc2cnc3[nH]ccc3n12` [compound 34, N-((1S,3R,4S)-3-ethyl-4-(6H-pyrrolo[2,3-e][1,2,4]triazolo[4,3-a]pyrazin-1-yl)cyclopentyl)-3-methylisoxazole-4-carboxamide] was 1 to 10 µM.
`CCc1cc(C(=O)N[C@H]2C[C@@H](CC)[C@@H](c3nnc4cnc5[nH]ccc5n34)C2)on1` [compound 81, 3-ethyl-N-((1S,3R,4S)-3-ethyl-4-(6H-pyrrolo[2,3-e][1,2,4]triazolo[4,3-a]pyrazin-1-yl)cyclopentyl)isoxazole-5-carboxamide] displayed a half-inhibitory concentration (IC50) (Table B) of 1 to 10 µM.
Still for that read-out and setting: the value for `CC[C@@H]1C[C@H](NC(=O)CSc2nnc(C)o2)C[C@@H]1c1nnc2cnc3[nH]ccc3n12` [compound 75, N-((1S,3R,4S)-3-ethyl-4-(6H-pyrrolo[2,3-e][1,2,4]triazolo[4,3-a]pyrazin-1-yl)cyclopentyl)-2-(5-methyl-1,3,4-oxadiazol-2-ylthio)acetamide] was 1 to 10 µM.
Still for that read-out and setting: for `CC[C@@H]1C[C@H](NC(=O)Cc2noc3ccccc23)C[C@@H]1c1nnc2cnc3[nH]ccc3n12` [compound 71, 2-(benzo[d]isoxazol-3-yl)-N-((1S,3R,4S)-3-ethyl-4-(6H-pyrrolo[2,3-e][1,2,4]triazolo[4,3-a]pyrazin-1-yl)cyclopentyl)acetamide] the value was 1 to 10 µM; for `CC[C@@H]1C[C@H](NC(=O)CCC2(C)CC2)C[C@@H]1c1nnc2cnc3[nH]ccc3n12` [compound 44, N-((1S,3R,4S)-3-ethyl-4-(6H-pyrrolo[2,3-e][1,2,4]triazolo[4,3-a]pyrazin-1-yl)cyclopentyl)-3-(1-methylcyclopropyl)propanamide], 1 to 10 µM.
Same read-out and setting: the value for `CC[C@@H]1C[C@H](NC(=O)Cc2coc3ccccc23)C[C@@H]1c1nnc2cnc3[nH]ccc3n12` [compound 41, 2-(benzofuran-3-yl)-N-((1S,3R,4S)-3-ethyl-4-(6H-pyrrolo[2,3-e][1,2,4]triazolo[4,3-a]pyrazin-1-yl)cyclopentyl)acetamide] was 1 to 10 µM; that for `CC[C@@H]1C[C@H](NC(=O)c2c(C)oc3c2CCCC3)C[C@@H]1c1nnc2cnc3[nH]ccc3n12` [compound 35, N-((1S,3R,4S)-3-ethyl-4-(6H-pyrrolo[2,3-e][1,2,4]triazolo[4,3-a]pyrazin-1-yl)cyclopentyl)-2-methyl-4,5,6,7-tetrahydrobenzofuran-3-carboxamide] was 1 to 10 µM.
